Source: patent publication EP0610032A1, “Acetanilide derivatives” (ZENECA LIMITED, priority 1993, dated 1994)

Key:
[1] = target: T1, 5-LO (Homo sapiens, UniProt P09917); experiment: Test a): in vitro heparinised human blood challenged with calcium ionophore A23187, radioimmunoassay of LTB₄; format: cell-based; settings: A23187 challenge, read-out: IC₅₀ (LTB₄)
T1 construct: incubating a test compound with heparinised human blood, prior to challenge with the calcium ionophore A23187; endogenous in cells; host or cells: heparinised human whole blood (blood cells)
T1 sequence (P09917 1-674): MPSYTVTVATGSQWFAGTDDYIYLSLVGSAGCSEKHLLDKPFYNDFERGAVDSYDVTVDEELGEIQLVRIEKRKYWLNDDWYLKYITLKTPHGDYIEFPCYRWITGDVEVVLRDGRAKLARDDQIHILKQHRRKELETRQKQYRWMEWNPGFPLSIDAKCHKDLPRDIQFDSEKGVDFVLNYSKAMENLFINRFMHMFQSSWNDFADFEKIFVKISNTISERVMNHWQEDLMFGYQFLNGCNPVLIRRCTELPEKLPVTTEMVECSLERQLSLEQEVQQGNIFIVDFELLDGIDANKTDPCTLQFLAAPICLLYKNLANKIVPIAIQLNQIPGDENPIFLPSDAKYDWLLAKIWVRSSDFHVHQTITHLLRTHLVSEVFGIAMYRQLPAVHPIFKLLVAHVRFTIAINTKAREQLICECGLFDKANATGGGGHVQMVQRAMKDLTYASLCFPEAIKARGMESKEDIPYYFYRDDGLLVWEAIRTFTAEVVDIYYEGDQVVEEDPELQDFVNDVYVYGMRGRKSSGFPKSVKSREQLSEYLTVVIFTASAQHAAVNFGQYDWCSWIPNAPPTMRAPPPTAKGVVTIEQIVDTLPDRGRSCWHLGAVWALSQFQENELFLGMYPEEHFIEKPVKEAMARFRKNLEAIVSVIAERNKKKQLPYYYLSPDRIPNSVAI
Description: As stated previously, the compounds of the formula I are inhibitors of the enzyme 5-LO. […] J. Pharmacol., 1985, 84, 34P) which involves the use of a protein-LTB₄ conjugate produced using the procedure of Young et alia (Prostaglandins, 1983, 26(4), 605-613). The effects of a test compound on the enzyme cyclooxygenase (which is involved in the alternative metabolic pathway for arachidonic acid and gives rise to prostaglandins, thromboxanes and related metabolites) may be measured at the same time using the specific radioimmunoassay for thromboxane B₂(TxB₂) described by Carey and Forder (see above). This test provides an indication of the effects of a test compound against 5-LO and also cyclooxygenase in the presence of blood cells and proteins. It permits the selectivity of the inhibitory effect on 5-LO or cyclooxygenase to be assessed. • b) An ex vivo assay system, which is a variation of test a) above, involving administration to a group of rats of a test compound (usually orally as the suspension produced when a solution of the test compound in dimethylsulphoxide is added to carboxymethylcellulose), blood collection, heparinisation, challenge with A23187 and radioimmunoassay of LTB₄ and TxB₂. […]

[2] = target: T2, 5-LO (Rattus norvegicus, UniProt P12527); experiment: Test c): in vivo zymosan-induced LTB₄ liberation in subcutaneous air pouch of male rats; settings: oral, 3 hours, read-out: oral ED₅₀(LTB₄)
T2 construct: liberation of LTB₄ induced by zymosan within an air pouch generated within the subcutaneous tissue of the back of male rats; from tissue; host or cells: subcutaneous air pouch of male rats (in vivo)
T2 sequence (P12527 1-673): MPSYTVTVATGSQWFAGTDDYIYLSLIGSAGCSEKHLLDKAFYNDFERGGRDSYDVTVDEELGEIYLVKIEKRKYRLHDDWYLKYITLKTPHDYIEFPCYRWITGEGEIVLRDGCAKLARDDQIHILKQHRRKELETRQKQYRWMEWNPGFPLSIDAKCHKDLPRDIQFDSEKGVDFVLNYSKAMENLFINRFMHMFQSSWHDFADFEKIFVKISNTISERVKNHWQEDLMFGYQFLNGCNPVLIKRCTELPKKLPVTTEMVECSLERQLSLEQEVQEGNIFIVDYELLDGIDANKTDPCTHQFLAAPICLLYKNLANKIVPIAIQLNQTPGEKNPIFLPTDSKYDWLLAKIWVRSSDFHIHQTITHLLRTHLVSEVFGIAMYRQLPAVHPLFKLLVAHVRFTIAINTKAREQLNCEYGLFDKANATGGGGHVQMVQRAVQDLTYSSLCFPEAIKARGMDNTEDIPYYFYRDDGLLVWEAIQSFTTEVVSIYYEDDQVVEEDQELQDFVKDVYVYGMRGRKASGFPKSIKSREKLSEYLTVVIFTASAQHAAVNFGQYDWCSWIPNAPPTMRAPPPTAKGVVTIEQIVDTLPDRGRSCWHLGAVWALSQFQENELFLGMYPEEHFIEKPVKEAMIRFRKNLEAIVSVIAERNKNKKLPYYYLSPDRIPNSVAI
Description: This test provides an indication of the bioavailability of a test compound as an inhibitor of 5-LO or cyclooxygenase. • c) An in vivo system involving measuring the effects of a test compound administered orally against the liberation of LTB₄ induced by zymosan within an air pouch generated within the subcutaneous tissue of the back of male rats. The rats are anaesthetised and air pouches are formed by the injection of sterile air (20ml). A further injection of air (10ml) is similarly given after 3 days. At 6 days after the initial air injection the test compound is administered (usually orally as the suspension produced when a solution of the test compound in dimethylsulphoxide is added to hydroxypropylmethylcellulose), followed by the intrapouch injection of zymosan (1ml of a 1% suspension in physiological saline). After 3 hours the rats are killed, the air pouches are lavaged with physiological saline, and the specific radioimmunoassay described above is used to assay LTB₄ in the washings. This test provides an indication of inhibitory effects against 5-LO in an inflammatory milieu.

IC50 [1] [µM] | ED50 [2] [mg/kg] | Compound
< 0.04 | ~1.5 | CC(=O)N(C)c1ccc(Sc2cc([C@@]3(C)COC(C)(C)O3)cs2)cc1 [Example 1, N-methyl-4'-{4-[(4S)-2,2,4-trimethyl-1,3-dioxolan-4-yl]thien-2-ylthio}acetanilide]
0.07 |  | CC(=O)N(C)c1ccc(Sc2ncc([C@@]3(C)COC(C)(C)O3)s2)cc1 [Example 2, N-methyl-4'-{5-[(4R)-2,2,4-trimethyl-1,3-dioxolan-4-yl]thiazol-2-ylthio}acetanilide]
